Laboratory results taken from publication PMC8801796 (Reproductive Toxicology (Elmsford, N.y.), 2022).
Where two headings read alike, the source gives them in different places.

Legend:
[1] = test system: New Zealand White [Hra:(NZW)SPF] rabbits
[2] = test system: Wistar Han (Crl:WI[Han]) rats; test: Rat embryo-fetal development
[3] = Rat embryo-fetal development; settings: female, Wistar Han, rat, in vivo, oral
[4] = test system: Wistar Han (Crl:WI[Han]) rats; test: Fertility and early embryonic development study in rats; format: in vivo, rat; settings: for Corpora lutea / Implantation sites / Live embryos / Resorptions: GD 14 uterine examination; for Number of pregnant females: of 20
[5] = as above; format: in vivo, rat; settings: both, Wistar Han, rat, in vivo, oral
[6] = test system: rats; settings: doses up to 1000 mg/kg/day; cited from earlier work
[7] = cited from earlier work
[8] = in vivo; settings: female, New Zealand White, rabbit, 1000 mg/kg/day
[9] = test system: monkeys; settings: doses up to 600 mg/kg/day; cited from earlier work
[10] = Maternal toxicokinetics, rat EFD study; format: in vivo; settings: for Cmax: female, Wistar Han, in vivo, po; for Cmax / Exposure Margin AUC24 / Exposure Margin Cmax: rat; for Mean Systemic Exposure AUC24: maternal rat; for Exposure Margin AUC24: relative to predicted human AUC24 68.6 μg h/mL; for Exposure Margin Cmax: relative to predicted human Cmax 4.14 μg/mL
[11] = Maternal toxicokinetics, rabbit EFD study; format: in vivo; settings: for Cmax: female, New Zealand White, in vivo, po; for Cmax / Exposure Margin AUC24 / Exposure Margin Cmax: rabbit; for Mean Systemic Exposure AUC24: maternal rabbit; for Exposure Margin AUC24: relative to predicted human AUC24 68.6 μg h/mL; for Exposure Margin Cmax: relative to predicted human Cmax 4.14 μg/mL

## CC(C)(C)[C@H](NC(=O)C(F)(F)F)C(=O)N1C[C@H]2[C@@H]([C@H]1C(=O)N[C@H](C#N)C[C@@H]1CCNC1=O)C2(C)C [NMV, nirmatrelvir]
[1]; 100 mg/kg
  Corpora lutea: 9.7 ± 1.5
  Fetal weight (g)/Litter: 40.2 ± 3.0 g
  Implantation sites: 8.2 ± 1.7
  Maternal Body Weight (GD 29): 3.6 ± 0.2 kg
  Maternal Body Weight Gain (GD 7−29): 0.5 ± 0.1 kg
  Maternal Food Consumption (GD 7−29): 2983.9 ± 289.5 g
  Post-implantation loss: 3.3 ± 7.7%
  Pre-implantation loss: 14.4 ± 17.9%
[1]; 300 mg/kg
  Corpora lutea: 9.4 ± 2.1
  Fetal weight (g)/Litter: 40.3 ± 4.5 g
  Implantation sites: 8.6 ± 2.3
  Maternal Body Weight (GD 29): 3.6 ± 0.2 kg
  Maternal Body Weight Gain (GD 7−29): 0.4 ± 0.1 kg
  Maternal Food Consumption (GD 7−29): 2908.9 ± 500.1 g
  Post-implantation loss: 5.4 ± 7.4%
  Pre-implantation loss: 9.5 ± 10.2%
[1]; 1000 mg/kg
  Corpora lutea: 9.5 ± 1.7
  Implantation sites: 8.8 ± 1.6
  Maternal Body Weight (GD 29): 3.6 ± 0.2 kg
  Maternal Body Weight Gain (GD 7−29): 0.4 ± 0.1 kg
  Maternal Food Consumption (GD 7−29): 2703.0 ± 514.2 g
  Post-implantation loss: 3.2 ± 4.9%
  Pre-implantation loss: 6.4 ± 11.8%
[1]; 1000 mg/kg, p ≤ 0.01
  Fetal weight (g)/Litter: 37.7 ± 4.4 g
[1]; rabbit, 1000 mg/kg/day
  Mean maternal body weight gains and food consumption versus control: slightly lower than control
[1]; up to 1000 mg/kg/day
  Effects on embryo-fetal viability: no NMV-related effects on embryo-fetal viability
  Effects on external, visceral, or skeletal morphological development: no NMV-related effects on external, visceral, or skeletal morphological development
[2]; 100 mg/kg
  Corpora lutea: 11.4 ± 1.1
  Fetal weight (g)/Litter: 5.3 ± 0.3 g
  Implantation sites: 9.9 ± 1.5
  Maternal Food Consumption (GD 6−21): 313.4 ± 32.0 g/day
  Post-implantation loss: 6.5 ± 15.4%
  Pre-implantation loss: 12.8 ± 11.1%
[2]; 300 mg/kg
  Corpora lutea: 11.5 ± 1.5
  Fetal weight (g)/Litter: 5.5 ± 0.3 g
  Implantation sites: 9.3 ± 2.4
  Maternal Food Consumption (GD 6−21): 322.3 ± 20.8 g/day
  Post-implantation loss: 6.8 ± 14.9%
  Pre-implantation loss: 18.7 ± 19.9%
[2]; 1000 mg/kg
  Corpora lutea: 11.5 ± 1.5
  Fetal weight (g)/Litter: 5.4 ± 0.3 g
  Implantation sites: 9.7 ± 2.6
  Maternal Food Consumption (GD 6−21): 309.5 ± 43.1 g/day
  Post-implantation loss: 9.7 ± 14.1%
  Pre-implantation loss: 15.3 ± 21.0%
[2]; all dose groups
  Effects on embryo-fetal viability: no NMV-related effects on embryo-fetal viability
[2]; any dose up to 1000 mg/kg/day
  Maternal toxicity: no NMV-related maternal toxicity
[2]; up to 1000 mg/kg/day
  Effects on fetal external, visceral, or skeletal morphological development: no effects on fetal external, visceral, or skeletal morphological development
[3]
  NOAEL: 1000 mg/kg/day
[4]; 60 mg/kg/day
  Female Food Consumption, Gestation Day 0−14: 19.2 ± 2.1 g/day
  Female Food Consumption, Premating Day 1−14: 15.3 ± 1.2 g/day
  Female Terminal Body Weight: 277.0 ± 24.1 g
  Male Food Consumption, Mating Day 15−19: 19.3 ± 2.8 g/day
  Male Food Consumption, Premating Day 1−14: 22.0 ± 1.1 g/day
  Male Terminal Body Weight: 409.9 ± 22.7 g
  Mean no. of estrous cycles: 2.7 ± 0.5
  Postimplantation loss: 5.3 ± 5.7%
  Precoital interval: 3.6 ± 3.5 days
  Preimplantation loss: 9.7 ± 8.1%
  Corpora lutea: 13.8 ± 1.3
  Implantation sites: 12.5 ± 1.4
  Live embryos: 11.8 ± 1.4
  Resorptions: 0.7 ± 0.7
  Number of pregnant females: 19
[4]; 200 mg/kg/day
  Female Food Consumption, Gestation Day 0−14: 19.0 ± 2.2 g/day
  Female Food Consumption, Premating Day 1−14: 14.8 ± 0.8 g/day
  Female Terminal Body Weight: 272.0 ± 13.3 g
  Male Food Consumption, Mating Day 15−19: 18.0 ± 3.1 g/day
  Male Food Consumption, Premating Day 1−14: 23.0 ± 1.2 g/day
  Male Terminal Body Weight: 411.6 ± 22.2 g
  Mean no. of estrous cycles: 2.7 ± 0.5
  Postimplantation loss: 9.5 ± 12.8%
  Precoital interval: 3.0 ± 2.2 days
  Preimplantation loss: 11.0 ± 18.4%
  Corpora lutea: 14.1 ± 1.7
  Implantation sites: 12.6 ± 3.0
  Live embryos: 11.5 ± 3.2
  Resorptions: 1.1 ± 1.6
  Number of pregnant females: 18
[4]; 1000 mg/kg/day
  Female Food Consumption, Gestation Day 0−14: 19.0 ± 1.6 g/day
  Female Food Consumption, Premating Day 1−14: 14.7 ± 1.0 g/day
  Female Terminal Body Weight: 277.8 ± 14.1 g
  Male Food Consumption, Mating Day 15−19: 18.3 ± 3.2 g/day
  Male Terminal Body Weight: 408.9 ± 19.7 g
  Mean no. of estrous cycles: 2.6 ± 0.5
  Postimplantation loss: 10.6 ± 11.9%
  Precoital interval: 3.2 ± 2.9 days
  Preimplantation loss: 16.9 ± 22.8%
  Corpora lutea: 12.7 ± 1.6
  Implantation sites: 10.5 ± 3.1
  Live embryos: 9.6 ± 3.2
  Resorptions: 1.0 ± 0.8
  Number of pregnant females: 20
[4]; 1000 mg/kg/day, p ≤ 0.05
  Male Food Consumption, Premating Day 1−14: 20.9 ± 0.9 g/day
[4]; up to 1000 mg/kg/day
  Effects on male or female fertility: no NMV-related effects on male or female fertility
  Systemic toxicity in males and females: no evidence of systemic toxicity
[5]
  NOAEL: 1000 mg/kg/day
[6]
  Adverse findings in 2-week general toxicology study: lack of adverse findings
[7]
  Genetic toxicity: lack of genetic toxicity
[8]
  NOAEL: 300 mg/kg/day
[9]
  Adverse findings in 2-week general toxicology study: lack of adverse findings
[10]; 100 mg/kg/day
  Cmax: 29000 ± 11000 ng/mL
[10]; 300 mg/kg/day
  Cmax: 43200 ± 14400 ng/mL
[10]; 1000 mg/kg/day
  Cmax: 65400 ± 18700 ng/mL
[10]; GD 17, 100 mg/kg/day
  Mean Systemic Exposure AUC24: 75.5 ± 12.4 μgh^•/mL
  Exposure Margin AUC24: 1.1x
  Exposure Margin Cmax: 7.0x
[10]; GD 17, 300 mg/kg/day
  Mean Systemic Exposure AUC24: 346 ± 92.0 μgh^•/mL
  Exposure Margin AUC24: 5.0x
  Exposure Margin Cmax: 10x
[10]; GD 17, 1000 mg/kg/day
  Mean Systemic Exposure AUC24: 535 ± 330 μgh^•/mL
  Exposure Margin AUC24: 7.8x
  Exposure Margin Cmax: 16x
[11]; 100 mg/kg/day
  Cmax: 17000 ± 6100 ng/mL
[11]; 300 mg/kg/day
  Cmax: 42900 ± 11100 ng/mL
[11]; 1000 mg/kg/day
  Cmax: 99600 ± 46500 ng/mL
[11]; GD 19, 100 mg/kg/day
  Mean Systemic Exposure AUC24: 98.7 ± 27.4 μgh^•/mL
  Exposure Margin AUC24: 1.4x
  Exposure Margin Cmax: 4.1x
[11]; GD 19, 300 mg/kg/day
  Mean Systemic Exposure AUC24: 195 ± 56.8 μgh^•/mL
  Exposure Margin AUC24: 2.8x
  Exposure Margin Cmax: 10x
[11]; GD 19, 1000 mg/kg/day
  Mean Systemic Exposure AUC24: 689 ± 206 μgh^•/mL
  Exposure Margin AUC24: 10x
  Exposure Margin Cmax: 24x
